Data reported in PMC7440915, “Discovery of surrogate agonists for visceral fat Treg cells that modulate metabolic indices in vivo” (eLife, 2020).
Where no end group is shown, it is not given here.

How the values were obtained:
[1] = tested on: vTreg53 TCR (transduced Jurkat T cells); experiment: CD69/CD25 up-regulation on vTreg53 TCR transduced Jurkat T cells with peptide-pulsed K562-A^b cells; assay type: cell-based, Homo sapiens (cells); murine TCR
Method: (§1) Figure 3. Identification of robust vTreg53 TCR agonists. Single-point mutants based on the Fat7 (A) or Fat15 (B) peptides were used to stimulate Fat-TCR transduced Jurkat T cells. Data shown are mean fluorescence intensity for CD69 up-regulation following overnight stimulation with the indicated peptides at 100 µM. (C) Potent SPs based on Fat15. Single-residue mutations from the Fat15 are shown in red. Anchor positions are shown in grey and potential TCR-facing positions are shown in green. A peptide titration of single- and double-point mutants from the Fat15 SP show up to ~4- (D; CD69) or ~8 fold (E; CD25) increase in Emax. (F) Surface plasmon resonance for Fat7, Fat15, Fat1562 and Fat2564 was used to determine the pMHC/Fat TCR affinity. All biotinylated pMHC were purified by SEC and immobilized in a streptavidin-coated SPR sensor chip from 200 up to 600 RU. Data are mean ± SD from n = 2 (A, D, E) or 3 (B) biological replicates from 1 representative of 3 independent experiments. Data shown in (F) is representative of 2 independent experiments. Figure 3—figure supplement 1. In vitro peptide stimulation of the vTreg53 TCR cells. (A) Expression of wild-type Ab MHC in stably transduced K562 cells. (B) Expression of vTreg53 TCR in stably transduced Jurkat T cells (TCRαβ-/-). (C) Fraction of CD25+/CD69+ cells following overnight stimulation with Fat mimotopes at the indicated concentrations. (D) Peptide-A^b - streptavidin PE (pAb -SAPE) titration of vTreg53 transduced Jurkat T cells. Cells were stained with 250 nM of pA^b-SAPE tetramer for 1 hr.
Cell lines were kept in a humidified incubator at 37°C with 5% CO2 unless otherwise denoted. Jurkat T cells (derived from acute T cell leukemia ATCC TIB-152) and K562 cells (ATCC CCL-243) were cultured in RPMI supplemented with 2 mM glutamax (Invitrogen), 10% FBS (Sigma),10 mM HEPES pH 8.0 (ThermoFisher), 1 mM Sodium Pyruvate (Gibco) and 50 U/ml penicillin and streptomycin (ThermoFisher). Validation of T cell lines was performed by staining with known markers pre- and post- transfection or transduction. HEK293T (Lenti-X; Takara Bio USA, #632180) cells (female derived kidney cell line) were grown in DMEM complete media (ThermoFisher) supplemented with 10% FBS, 2 mM L-glutamine, and 50 U/ml of penicillin and streptomycin. Cells were tested for mycoplasma contamination using the MycoAlert Mycoplasma Detection kit (Lonza) and found to be mycoplasma-negative. For peptide assays, Jurkat T cells were rested overnight or for 2–3 hr in fresh RPMI complete. Cells were co-cultured for 16 to 48 hr with surrogate APCs: K562 transduced with A^b. After overnight incubation, cells were washed in MACS buffer and stained with anti-TCR, A^b, CD69 and CD25. EBY100 yeast cells were cultured in sterile filtered standard YPD (Bacto Peptone, glucose and yeast extract). Transformed yeast were grown in SDCAA (yeast nitrogen base, casamino acids -ADE, -URA, -TRP, D-glucose and buffered to pH 4.5 using sodium citrate and citric acid monohydrate) and induced in SGCAA where galactose replaces D-glucose. EBY100 cells are grown at 30°C when cultured in SDCAA, or at 20°C when cultured in SGCAA at atmospheric CO2 in an orbital shaker set to an agitation speed of 250 rpm.

vTreg53 (Fat) TCR = experiment: Surface plasmon resonance, pMHC/Fat TCR affinity; assay type: binding, murine; details: 25°C
Method: as §1
High Five cells (Tni; Expression Systems) were grown in Insect X-press media (Lonza) or ESF 921 media (Expression Systems) with a final concentration of 10 mg/L of gentamicin sulfate (ThermoFisher) at 27°C at atmospheric CO2. SF9 cells are grown in SF900-III or -II serum-free media (ThermoFisher) with 10% FBS and final concentration 10 mg/L of gentamicin sulfate and 2 mM glutamax at 27°C at atmospheric CO2. P1 or P2 virus was used to infect volumes of 1–3 L of Hi5 cells at ∼2 × 10^6 cells/ml. Supernatant was harvested 2–3 days post-infection and spun down at 8000 rpm for 15 min. The supernatant containing expressed protein was treated to 100 mM Tris pH 8.0, 1 mM NiCl2, and 5 mM CaCl2 to precipitate contaminants. The supernatant and precipitate mixture was spun down at 8000 rpm for 20 min at 4°C to remove precipitate. The supernatant was incubated with Ni-NTA resin (QIAGEN) for >3 hr at room temperature. Ni-NTA beads were collected and washed in a Buchner funnel with 20 mM imidazole in 1 x HBS pH 7.2 and eluted with 200 mM imidazole in 1x HBS pH 7.2. Protein was concentrated in a 10 kDa filter (Millipore, UFC903024) to ~1 mL. When appropriate, protein was biotinylated with BirA ligase, 100 μM biotin, 40 mM Bicine pH 8.3, 10 mM ATP, and 10 mM Magnesium Acetate at 4°C overnight. All proteins were further purified by size-exclusion chromatography using Superdex Increase S200 or S75, as appropriate (GE Healthcare). All proteins for in vivo studies were cleared of endotoxin. Final endotoxin levels were determined using a chromogenic endotoxin quantitation kit (Thermo Fisher) and never greater than 1 Endotoxin Unit/mg of purified protein.
A GE Biacore T100 was used to measure the KD by equilibrium methods. Approximately 200 resonance units (RU) of human CD45, PD-1 or mouse PD-1 was captured on a SA-chip (GE Healthcare), including a reference channel of an unrelated protein. SPR runs were performed in HBS-P+ (GE Healthcare). All measurements were made with 2-fold serial dilutions using 45–60 s association (at 30 μl/min) followed by >240 s dissociation (30 μl/min) at 25°C. Regeneration was performed using HBS-P+, 2 M MgCl2 or 0.1 M Glycine, pH 3.1 for 15–20 s at 50 μl/min. Measurement of titrations at equilibrium were used to determine the KD using Biacore Analysis Software (GE Healthcare). All measurements were repeated twice.

EC50 ([1]; peptide titration, CD69 (Figure 3D), overnight, mean ± SD from n = 2 biological replicates, 1 representative of 3 experiments): 40.7 µM
Kd (vTreg53 (Fat) TCR; Biacore T100, biotinylated pMHC immobilized on SA chip 200 to 600 RU, HBS-P+, equilibrium, representative of 2 experiments): 32.8 µM
Sequence: TMYKNPRPVAATG [Fat15]
CD69 up-regulation ([1]; overnight stimulation, screen at 100 µM): able to up-regulate CD69 expression
koff (vTreg53 (Fat) TCR; SPR): fast kon and koff
kon (vTreg53 (Fat) TCR; SPR): fast kon
